# Data taken from US8192989B2, “Solid surface for biomolecule delivery and high-throughput assay” (Nitto Denko Corporation, priority 2003, dated 2012).
# What was measured:
# 293 cells [1] = assay: Cytotoxicity assay - MTT assay after transfection; format: cell-based
# Protocol: Glutamine (100 mmol/L) and different transfection reagents (NDT-CP-B-1, NDT-CP-1, Superfect and lipofectamine 2000) were diluted in 0.2% gelatin solution, and 25 μl of the solution containing Glutamine/transfection reagent/gelatin was added into a 96 well plate and allowed to air dry. Then 25 μl GFP plasmid solution in opti MEM (20.0 μg/ml) was added into each well and incubated at room temperature for 25 min. The dried plate was ready for use (FIG. 32).
# In this experiment, 0.2% gelatin or 0.2% gelatin and 40.0 μg/ml laminin mixture was used for diluting transfection reagents NDT-CP-B-1, NDT-CP-1, NDT-LP-1 NDT-LP-2, Superfect and lipofectamine 2000, and 25 μl solution was added into 96 well plate. The amounts of NDT polymers used in each well were 8, 4 or 2 μg, respectively, the amounts of Superfect were 15, 7.5 and 3.8 μg/well respectively, and the amounts of lipofectamine 2000 were 2.5, 1.25 and 0.63 μg/well respectively. […] The transfection efficiency and cytotoxicity were analyzed by fluorescent microscope and MTT assay (FIG. 33).
# The cytotoxicities of transfection reagents on mammalian cells were evaluated using 3-[4,5 dimethylthiazol-2-yl]-2,5-diphenyltetrazolium bromide (MTT) method. […] The absorbance of the solution was measured at 570 nm. Cell viabilities was calculated using the equation: Viability (%)={Abs570 (sample)/Abs570 (control)}×100 (FIG. 31).
# 293 cells [2] = assay: Effect of membrane disturbing peptide on PLL-laminin mediated gene transfer; format: cell-based; conditions: membrane disturbing peptide in PLL-laminin based transfectable surface, 96-well (FIG. 28)
compound,measurement,setting,value
"NC(=O)CC[C@H](N)C(=O)O [glutamine, Glutamine]",effect on transfection cytotoxicity,"293 cells [1]; cytoreductive reagent added to transfectable surface, with versus without glutamine (FIG. 32)",significantly improved transfection cytotoxicity
laminin,effect on cytotoxicity caused by transfection reagents and procedures,"293 cells [1]; cell attaching reagent in transfection reagents-gelatin surface, with versus without laminin (FIG. 33)",significantly improved cytotoxicity
RRRQGTWLNPGFPPQSCGYATVTDARRR (Chemically synthesized peptide corresponding to viral envelope protein VSVG) [VSVG peptide],effect on transfection efficiency,293 cells [2],significantly enhance transfection efficiency
